Consider four molecules from patent publication US20230381156A1, “TREATMENT OF BREAST CANCER USING COMBINATION THERAPIES COMPRISING GDC-9545 AND IPATASERTIB” (Genentech, Inc., priority 2021, published 2023).

Molecules are shown by their SMILES.

The subject of data set [1] is CDK4/6i-resistant breast cancer cell line. To be noted: Iida et al. 2020; cited from earlier work.
The test system of a further data set is frontline patients. The settings on record: NCT01602380; cited from earlier work.
Data set [2] has as its system ER+ breast cancer models of ESR1-wild type and ESR1-mutation-bearing disease. The data set is described as follows: Xenograft models / ER+ breast cancer models.
Data set [3] can be described thus: Human steady-state total drug exposure versus fulvestrant. Type of data set: in vivo. The settings on record: GDC-9545 30 mg QD versus fulvestrant 500 mg IM monthly.
The nature of data set [4]: Plasma protein binding / free concentration versus fulvestrant. Format: in vitro ADME.
The subject of data set [5] is ER (wild-type and ESR1-mutant contexts). Nature of the data set: In vitro cell and biochemical assays, potency versus fulvestrant.
A further data set has as its target T1, ER (Homo sapiens, UniProt P03372).
T1 sequence (P03372 1-595): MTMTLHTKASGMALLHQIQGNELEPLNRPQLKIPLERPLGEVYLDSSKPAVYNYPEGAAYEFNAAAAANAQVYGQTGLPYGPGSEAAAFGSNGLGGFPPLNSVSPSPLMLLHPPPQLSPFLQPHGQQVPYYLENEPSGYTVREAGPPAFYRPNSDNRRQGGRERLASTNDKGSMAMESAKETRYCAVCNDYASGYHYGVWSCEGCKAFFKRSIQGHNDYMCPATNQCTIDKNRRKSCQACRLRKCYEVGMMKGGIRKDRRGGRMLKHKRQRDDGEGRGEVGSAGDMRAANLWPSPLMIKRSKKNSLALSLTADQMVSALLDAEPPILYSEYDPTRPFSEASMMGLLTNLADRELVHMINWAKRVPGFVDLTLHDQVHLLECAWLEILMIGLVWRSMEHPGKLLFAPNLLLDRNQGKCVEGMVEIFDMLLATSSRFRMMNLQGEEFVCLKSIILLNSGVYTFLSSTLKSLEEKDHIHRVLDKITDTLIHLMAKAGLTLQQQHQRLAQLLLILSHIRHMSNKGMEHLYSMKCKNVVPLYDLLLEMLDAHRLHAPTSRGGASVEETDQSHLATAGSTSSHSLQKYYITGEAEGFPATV
Nature of the data set: Competition with estrogens for binding to the ER.

As for `Cc1nc(NC(=O)N2CCC[C@H]2C(N)=O)sc1-c1ccnc(C(C)(C)C(F)(F)F)c1` [alpelisib], in data set [1], the “response of resistant cells in cell growth analysis” value is “remain responsive”.

For `CO[C@H]1C[C@@H]2CC[C@@H](C)[C@@](O)(O2)C(=O)C(=O)N2CCCC[C@H]2C(=O)O[C@H]([C@H](C)C[C@@H]2CC[C@@H](OCCO)[C@H](OC)C2)CC(=O)[C@H](C)/C=C(\C)[C@@H](O)[C@@H](OC)C(=O)[C@H](C)C[C@H](C)/C=C/C=C/C=C/1C` [everolimus], the “response of resistant cells in cell growth analysis” value in data set [1] is on record as “remain responsive”.

As for `C[C@]12CC[C@@H]3c4ccc(O)cc4C[C@@H](CCCCCCCCC[S+]([O-])CCCC(F)(F)C(F)(F)F)[C@H]3[C@@H]1CC[C@@H]2O` (stereo partly shown) [Fulvestrant, reference compound], the “clinical benefit versus anastrozole” value in the data set on frontline patients was “benefit over anastrozole”. In addition, in data set [2] (fulvestrant dosed according to a clinically relevant dosing scheme), the “efficacy in xenograft models compared with GDC-9545” value was “less efficacious than GDC-9545”.

For the molecule `C[C@@H]1Cc2c([nH]c3ccccc23)[C@@H](c2c(F)cc(NC3CN(CCCF)C3)cc2F)N1CC(F)(F)CO` [GDC-9545, 3-((1R,3R)-1-(2,6-difluoro-4-((1-(3-fluoropropyl)azetidin-3-yl)amino)phenyl)-3-methyl-1,3,4,9-tetrahydro-2H-pyrido[3,4-b]indol-2-yl)-2,2-difluoropropan-1-ol], the “human steady-state total drug exposure relative to fulvestrant” value in data set [3] is on record as “approximately 10 fold”. In addition, in data set [4], the “free concentration compared with fulvestrant” value is given as “higher” and the “plasma protein binding compared with fulvestrant” value was “lower”. The “potency relative to fulvestrant” value in data set [5] was “up to 10 times”. Moreover, the “potency of competition with estrogens for binding to the ER” value on ER is listed as “low nanomolar potency”. For the same molecule, the “nonclinical activity in ER+ breast cancer models” value in data set [2] (ESR1-wild type and ESR1-mutation-bearing disease) is listed as “robust nonclinical activity”.
